These results are taken from ChEMBL document CHEMBL3994629, “Synthesis and biological evaluation of a water-soluble phosphate prodrug salt and structural analogues of KGP94, a lead inhibitor of cathepsin L” (Bioorg Med Chem Lett, 2017).

Series [1] has as its target T1, Procathepsin L (Homo sapiens, UniProt P07711). The series is described as follows: Inhibition of human liver cathepsin-L at 10 uM using Z-FR-AMC as substrate preincubated for 5 mins followed by substrate addition measured at 15 sec interval for 5 mins in presence of 0.01% Brij35 by fluorometric method relative to control.
Target sequence in this assay (P07711 114-333 limits assumed): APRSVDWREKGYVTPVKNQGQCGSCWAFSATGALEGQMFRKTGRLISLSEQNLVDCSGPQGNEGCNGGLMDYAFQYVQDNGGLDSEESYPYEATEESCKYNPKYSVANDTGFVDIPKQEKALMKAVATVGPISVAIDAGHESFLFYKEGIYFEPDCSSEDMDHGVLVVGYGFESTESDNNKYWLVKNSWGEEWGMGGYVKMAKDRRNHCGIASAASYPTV
Series [2] has as its target T1, Procathepsin L. As to the kind of experiment: Inhibition of human liver cathepsin-L using Z-FR-AMC as substrate preincubated for 5 mins followed by substrate addition measured at 15 sec interval for 5 mins by fluorometric method.
Target sequence in this assay (P07711 whole entry): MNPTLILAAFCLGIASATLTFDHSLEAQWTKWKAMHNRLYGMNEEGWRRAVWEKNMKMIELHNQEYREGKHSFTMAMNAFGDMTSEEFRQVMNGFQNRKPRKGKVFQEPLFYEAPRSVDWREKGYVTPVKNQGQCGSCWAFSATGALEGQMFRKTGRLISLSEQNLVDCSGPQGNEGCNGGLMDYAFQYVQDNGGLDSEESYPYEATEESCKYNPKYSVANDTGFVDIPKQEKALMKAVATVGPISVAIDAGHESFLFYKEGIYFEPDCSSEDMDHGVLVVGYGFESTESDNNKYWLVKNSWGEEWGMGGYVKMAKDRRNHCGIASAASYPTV
The target of series [3] is T2, Cathepsin B (Homo sapiens, UniProt P07858). As to the kind of experiment: Inhibition of human liver cathepsin-B using Z-RR-AMC as substrate preincubated for 5 mins followed by substrate addition measured for 5 mins by fluorometric method.
Series [4] deals with T2, Cathepsin B. As to the kind of experiment: Inhibition of human liver cathepsin-B at 10 uM using Z-RR-AMC as substrate preincubated for 5 mins followed by substrate addition measured for 5 mins by fluorometric method relative to control.
For series [5], the target named is Matrix metalloproteinase-9 (Homo sapiens) (UniProt P14780). As to the kind of experiment: Inhibition of recombinant human MMP9 at 1 uM using NFF2 as substrate by fluorometric method relative to control.
Chain of Matrix metalloproteinase-9 (Homo sapiens) (P14780 whole entry): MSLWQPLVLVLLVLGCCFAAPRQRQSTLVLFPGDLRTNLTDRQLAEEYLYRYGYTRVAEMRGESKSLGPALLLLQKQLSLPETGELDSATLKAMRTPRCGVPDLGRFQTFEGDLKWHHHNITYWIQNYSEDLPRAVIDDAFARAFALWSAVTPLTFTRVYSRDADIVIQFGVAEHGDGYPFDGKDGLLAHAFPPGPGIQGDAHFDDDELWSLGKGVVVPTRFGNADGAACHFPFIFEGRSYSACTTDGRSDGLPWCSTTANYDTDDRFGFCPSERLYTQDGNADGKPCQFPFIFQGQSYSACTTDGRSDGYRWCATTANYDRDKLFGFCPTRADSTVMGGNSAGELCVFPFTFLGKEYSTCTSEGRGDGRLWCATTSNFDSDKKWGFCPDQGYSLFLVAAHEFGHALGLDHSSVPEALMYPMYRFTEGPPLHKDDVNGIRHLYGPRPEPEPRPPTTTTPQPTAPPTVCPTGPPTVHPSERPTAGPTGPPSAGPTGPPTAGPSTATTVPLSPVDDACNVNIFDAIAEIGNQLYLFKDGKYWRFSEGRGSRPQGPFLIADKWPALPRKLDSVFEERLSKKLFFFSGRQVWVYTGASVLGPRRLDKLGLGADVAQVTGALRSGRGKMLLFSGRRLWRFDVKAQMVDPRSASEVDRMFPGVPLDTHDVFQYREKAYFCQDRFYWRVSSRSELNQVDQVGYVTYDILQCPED
Another series concerns MDA-MB-231. As to the kind of experiment: Anti-migratory activity against human MDA-MB-231 cells assessed as delay in wound closure at 15 uM after 42 hrs by scratch assay. The series is classed as functional, cell-based.
Series [6] addresses T1, Procathepsin L. As to the kind of experiment: Covalent/reversible inhibition of human liver cathepsin-L using Z-FR-AMC as substrate preincubated for 5 mins followed by substrate addition measured at 15 sec interval for 5 mins by Morrison's equation analysis. The conditions noted are these: read-out: Ki(app).
Target sequence in this assay (P07711 whole entry): as the sequence (P07711 whole entry) above
Series [7] in a line: Retention time in pH 8.6 glycine buffer after 48 hrs at 37 degC by HPLC method.
A further series has as its target T3, Caspase-3 (Homo sapiens) (UniProt P42574).
T3 sequence (whole entry): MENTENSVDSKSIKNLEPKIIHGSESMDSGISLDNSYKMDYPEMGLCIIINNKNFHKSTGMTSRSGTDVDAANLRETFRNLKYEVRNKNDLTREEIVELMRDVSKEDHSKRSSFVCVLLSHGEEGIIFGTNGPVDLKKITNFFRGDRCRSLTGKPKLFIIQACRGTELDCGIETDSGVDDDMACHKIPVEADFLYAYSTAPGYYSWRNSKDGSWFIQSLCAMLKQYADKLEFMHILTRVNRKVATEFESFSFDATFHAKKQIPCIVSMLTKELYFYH
As to the kind of experiment: Inhibition of recombinant human caspase-3 at 1 uM using Ac-DMQD-AMC as substrate measured at 15 sec interval over 30 mins by fluorogenic assay relative to control.

Series [8] deals with T1, Procathepsin L. As to the kind of experiment: Inhibition of human liver cathepsin-L at 10 uM using Z-FR-AMC as substrate preincubated for 5 mins followed by substrate addition measured at 15 sec interval for 5 mins in presence of 0.1% Tween or 0.1% CHAPS by fluorometric method relative to control.
Target sequence in this assay (P07711 114-333 limits assumed): as the sequence (P07711 114-333 limits assumed) above
Series [9] concerns the target Matrix metalloproteinase-9 (Homo sapiens) (UniProt P14780). The series is described as follows: Inhibition of recombinant human MMP9 at 10 uM using NFF2 as substrate by fluorometric method relative to control.
Series [10] can be described thus: Aqueous solubility of the compound in water at 2.02 mg by reversed phase column chromatography. The series is classed as physicochemical.
Series [11] is described as follows: Prodrug activation in pH 8.6 glycine buffer assessed as KGP94 formation after 48 hrs at 37 degC in absence of alkaline phosphatase by HPLC method.
Series [12] in a line: Stability in pH 8.6 glycine buffer assessed as compound hydrolysis after 48 hrs at 37 degC in absence of alkaline phosphatase by HPLC method.
The nature of series [13]: Aqueous solubility of the compound in water at 4 g by reversed phase column chromatography. The series is classed as physicochemical.
A short description of series [14]: Stability in water assessed as compound hydrolysis at 20 uM after 1 week at 4 degC by HPLC method. It is filed as physicochemical. The conditions noted are these: buffer, 168 h.
Series [15] is described as follows: Solubility in water. The series is classed as physicochemical. The conditions noted are these: buffer.
A short description of series [16]: Cytotoxicity against HUVEC assessed as growth inhibition after 48 hrs by SRB assay. It is filed as cell-based. The conditions noted are these: human, HUVEC cells.
Series [17] in a line: Prodrug activation in water assessed as assessed as KGP94 formation at 20 uM after 1 week at 4 degC by HPLC method.
Series [18] concerns the target T1, Procathepsin L. The series is described as follows: Time-dependent inhibition of human liver cathepsin-L assessed as association constant up to 20 uM using 10 uM Z-FR-AMC as substrate preincubated with enzyme followed by substrate addition by fluorometric method.
Target sequence in this assay (P07711 114-333 limits assumed): as above
Series [19] addresses T1, Procathepsin L. As to the kind of experiment: Time-dependent inhibition of human liver cathepsin-L up to 20 uM using Z-FR-AMC as substrate preincubated with enzyme followed by substrate addition by fluorometric method.
Target sequence in this assay (P07711 114-333 limits assumed): as above
In series [20] the target is T1, Procathepsin L. As to the kind of experiment: Time-dependent inhibition of human liver cathepsin-L assessed as dissociation constant up to 20 uM using 10 uM Z-FR-AMC as substrate preincubated with enzyme followed by substrate addition by fluorometric method.
Target sequence in this assay (P07711 114-333 limits assumed): as above
Series [21] concerns the target T1, Procathepsin L. The series is described as follows: Time-dependent inhibition of human liver cathepsin-L assessed as association constant up to 20 uM using 5 uM Z-FR-AMC as substrate preincubated with enzyme followed by substrate addition by fluorometric method.
Target sequence in this assay (P07711 114-333 limits assumed): as above

Activity calls are given as the source filed them. The calls are words filed in the database; no cut-off is given here.

`NC(=S)N/N=C(\c1cc(O)cc(O)c1)c1cccc(Br)c1`: the inhibition is 23% on Procathepsin L [1] and more than 50% at Cathepsin B [4]. In addition, the figures for the IC50 against Procathepsin L [2] and at Cathepsin B [3] were not below 10 µM and more than 10 µM, respectively.
In the same order, the values of `COc1cc(OC)cc(/C(=N\NC(N)=S)c2cccc(Br)c2)c1` are 46%, more than 50%, more than 10 µM and more than 10 µM.
In the same order, the values of `NC(=S)N/N=C(\c1cc(O)cc(O)c1)c1cc(Br)cc(Br)c1` are 44%, more than 50%, more than 10 µM and more than 10 µM.
`COc1cc(OC)cc(/C(=N\NC(N)=S)c2cc(Br)cc(Br)c2)c1`: the inhibition on Procathepsin L [1] is 52%; against Cathepsin B [4], more than 50%. For the same molecule, the results for the IC50 at Procathepsin L [2] and at Cathepsin B [3] were not below 10 µM and more than 10 µM, respectively.
For `NC(=S)N/N=C(\c1cccc(O)c1)c1cccc(Br)c1`, the inhibition was 3% in series [5], 88 to 91% at Procathepsin L [1], 4.5% at Caspase-3 (Homo sapiens) and 15% in series [9]. In addition, the outcome in the series on MDA-MB-231 was Active. The Ki at Procathepsin L [6] came out at 0.0037 µM. Moreover, the Retention time in [7] came out at 5.4 min. For the same molecule, at Procathepsin L [8], the inhibition result was “Active”. The same molecule came in with a solubility in series [10] of less than 0.67 mg/mL.
For `NC(=S)NN=C(c1cc(O)cc(Br)c1)c1cc(O)cc(Br)c1`, the inhibition was 40% at Procathepsin L [1] and more than 50% on Cathepsin B [4]. The IC50 against Procathepsin L [2] and against Cathepsin B [3] was more than 10 µM in each case.
For `NC(=S)N/N=C(/c1cccc(Br)c1)c1cccc(OP(=O)([O-])[O-])c1.[Na+].[Na+]`, the result in the series with MDA-MB-231 was Active. Moreover, the Drug metabolism entry in [11] is “Metabolite detected”; in series [17], “Metabolite not detected”. Further, the values for the inhibition on Procathepsin L [1], on Procathepsin L [8] and on Cathepsin B [4] were 18%, less than 50% and more than 50%, respectively. Moreover, the Drug degradation in series [12] amounted to 5.6%. In [7], the Retention time is 1.6 min. Besides, the solubility in series [13] is more than 400 mg/mL; in series [15], “Soluble”. Besides, the Stability entry in series [14] was “Stable”. In series [16], the GI50 at 48 h is 20.2 µM. The IC50 at Procathepsin L [2] is more than 10 µM.
Consider `NC(=S)N/N=C(\c1cccc(O)c1)c1cc(Br)cc(Br)c1`, for which the result with MDA-MB-231 was Active. Moreover, the values for the inhibition at Procathepsin L [1] and on Cathepsin B [4] were 94% and more than 50%, respectively. Further, the results for the K at Procathepsin L [18], on Procathepsin L [20] and on Procathepsin L [21] were 1.5 ×10³ /M/s, 1 ×10⁻³ /s and 2 ×10³ /M/s, respectively. Further, at Procathepsin L [6], the Ki was 0.0084 µM. For the same molecule, the inhibition result at Procathepsin L [8] is “Active”. Besides, the TDI result on Procathepsin L [19] was “Active”. Moreover, the IC50 against Procathepsin L [2] is 0.202 µM; against Cathepsin B [3] it was more than 10 µM.
